Source: paper PMC9551036, “A selective and orally bioavailable VHL-recruiting PROTAC achieves SMARCA2 degradation in vivo” (Nature Communications, 2022)
Where “and” joins values, the source holds several entries; their conditions need not be identical. Equal values may be shown once. Read-outs that look alike come from different tables or passages of the source.

Key:
Solubility testing = format: physicochemical; conditions: for solubility at 24 h: buffer, kinetic from dmso stock
Description: Dilution into a 1:1 mixture of acetonitrile and water was used as reference. After 24 h, the incubations were filtrated, and the filtrate was analyzed by LC-UV.

Plasma protein binding = format: in vitro ADME
Description: Binding of compound to plasma proteins was determined by equilibrium dialysis of 3 µmol/L compound in plasma (or plasma dilutions in PBS) against PBS through an 8 kDa molecular-weight cut-off cellulose membrane (RED device, Thermo Fisher) at 37 °C for 5 h. After incubation, aliquots from donor and acceptor compartments were precipitated and the concentrations in the supernatants were determined by quantitative LC-MS/MS. Calibration and quality control samples were prepared using blank plasma and internal standard. The fraction unbound was calculated as ratio of the compound concentration in the acceptor compartment to the concentration in the donor compartment.

[1] = target: VCB: PROTAC: SMARCA4^BD ternary complex (Homo sapiens, UniProt P40337+P51532); experiment: SPR ternary complex measurement, VCB immobilised, 10 µM SMARCA4^BD present; format: binding; set-up: P51532, residues 1448–1569 with additional N-terminal SM residues; His6 (TEV site) (N, cleaved yes); GST (TEV site) (N, cleaved yes); made in house; host or cells: SMARCA4^BD: Escherichia coli BL21(DE3); conditions: for Kd: SPR; for alpha: cooperativity, SMARCA4, ratio of KD values measured in the same run
Sequence of VCB: PROTAC: SMARCA4^BD ternary complex (P40337 54-213): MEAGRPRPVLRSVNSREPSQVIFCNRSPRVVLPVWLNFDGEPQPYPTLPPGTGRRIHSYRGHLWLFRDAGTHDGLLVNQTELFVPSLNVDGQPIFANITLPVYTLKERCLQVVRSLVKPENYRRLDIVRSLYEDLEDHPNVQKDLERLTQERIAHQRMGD
Sequence of VCB: PROTAC: SMARCA4^BD ternary complex (Q15369 17-112 partner limits assumed): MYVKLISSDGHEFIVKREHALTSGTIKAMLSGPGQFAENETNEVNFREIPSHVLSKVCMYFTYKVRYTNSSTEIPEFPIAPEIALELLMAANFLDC
Sequence of VCB: PROTAC: SMARCA4^BD ternary complex (Q15370 1-104 partner limits assumed): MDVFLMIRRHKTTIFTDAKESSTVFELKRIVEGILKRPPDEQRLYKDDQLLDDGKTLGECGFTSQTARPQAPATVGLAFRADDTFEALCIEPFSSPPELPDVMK
Sequence of VCB: PROTAC: SMARCA4^BD ternary complex (P51532 1448-1569): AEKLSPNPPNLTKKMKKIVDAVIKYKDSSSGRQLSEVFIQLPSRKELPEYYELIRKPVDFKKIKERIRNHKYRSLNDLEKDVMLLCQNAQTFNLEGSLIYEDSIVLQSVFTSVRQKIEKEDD
Description: SPR data were acquired on Biacore 8K or T200 instruments (Cytiva). Target proteins were immobilised at 25 °C on CM5 chips by amine coupling (EDC/NHS, Cytiva) in HBS-P+ running buffer (pH 7.4), containing 2 mM TCEP. […] The reference surface was subsequently deactivated using 1 M ethanolamine. […] Biotinylated VCB was prepared as previously described[27]: in brief, the complex was mixed 1:1 with EZ-Link NHS–PEG4–biotin (Thermo Scientific) and incubated at room temperature for 1 h. Unreacted NHS-biotin was removed using a PD-10 desalting column (Cytiva) into 20 mM HEPES, pH 7.5, 150 mM sodium chloride and 1 mM DTT. The reference surface was generated by deactivating the EDC/NHS-treated surface with 1 M ethanolamine. All interaction experiments were done at 6 °C in running buffer (20 mM TRIS, pH 8.3, 150 mM potassium chloride, 2 mM magnesium chloride, 2 mM TCEP, 0.005% TWEEN 20, 1% dimethyl sulfoxide). For ternary complex measurements, a sensor chip surface with VCB immobilised was used (preparation as described above). Experiments were run in dual-inject mode with 10 µM SMARCA present during the injection and dissociation phase. Sensorgrams from reference surfaces and blank injections were subtracted from the raw data prior to data analysis using Biacore Insight software. Affinity and binding kinetic parameters were determined by global fitting using the 1:1 interaction model with a term for mass-transport included.

SMARCA2 = SMARCA2 (Homo sapiens, UniProt P51531); experiment: SMARCA2 capillary electrophoresis protein assay in other cell lines (A549, NCI-H1568, HCT116, LU99, HCC-364, HCT-15, HCC4006, SK-N-AS); format: cell-based; set-up: endogenous in cells; host or cells: RKO, NCI-H1568, A549, HCT116, LU99, HCC-364, HCT-15, HCC4006, SK-N-AS
Sequence of SMARCA2 (P51531 whole entry): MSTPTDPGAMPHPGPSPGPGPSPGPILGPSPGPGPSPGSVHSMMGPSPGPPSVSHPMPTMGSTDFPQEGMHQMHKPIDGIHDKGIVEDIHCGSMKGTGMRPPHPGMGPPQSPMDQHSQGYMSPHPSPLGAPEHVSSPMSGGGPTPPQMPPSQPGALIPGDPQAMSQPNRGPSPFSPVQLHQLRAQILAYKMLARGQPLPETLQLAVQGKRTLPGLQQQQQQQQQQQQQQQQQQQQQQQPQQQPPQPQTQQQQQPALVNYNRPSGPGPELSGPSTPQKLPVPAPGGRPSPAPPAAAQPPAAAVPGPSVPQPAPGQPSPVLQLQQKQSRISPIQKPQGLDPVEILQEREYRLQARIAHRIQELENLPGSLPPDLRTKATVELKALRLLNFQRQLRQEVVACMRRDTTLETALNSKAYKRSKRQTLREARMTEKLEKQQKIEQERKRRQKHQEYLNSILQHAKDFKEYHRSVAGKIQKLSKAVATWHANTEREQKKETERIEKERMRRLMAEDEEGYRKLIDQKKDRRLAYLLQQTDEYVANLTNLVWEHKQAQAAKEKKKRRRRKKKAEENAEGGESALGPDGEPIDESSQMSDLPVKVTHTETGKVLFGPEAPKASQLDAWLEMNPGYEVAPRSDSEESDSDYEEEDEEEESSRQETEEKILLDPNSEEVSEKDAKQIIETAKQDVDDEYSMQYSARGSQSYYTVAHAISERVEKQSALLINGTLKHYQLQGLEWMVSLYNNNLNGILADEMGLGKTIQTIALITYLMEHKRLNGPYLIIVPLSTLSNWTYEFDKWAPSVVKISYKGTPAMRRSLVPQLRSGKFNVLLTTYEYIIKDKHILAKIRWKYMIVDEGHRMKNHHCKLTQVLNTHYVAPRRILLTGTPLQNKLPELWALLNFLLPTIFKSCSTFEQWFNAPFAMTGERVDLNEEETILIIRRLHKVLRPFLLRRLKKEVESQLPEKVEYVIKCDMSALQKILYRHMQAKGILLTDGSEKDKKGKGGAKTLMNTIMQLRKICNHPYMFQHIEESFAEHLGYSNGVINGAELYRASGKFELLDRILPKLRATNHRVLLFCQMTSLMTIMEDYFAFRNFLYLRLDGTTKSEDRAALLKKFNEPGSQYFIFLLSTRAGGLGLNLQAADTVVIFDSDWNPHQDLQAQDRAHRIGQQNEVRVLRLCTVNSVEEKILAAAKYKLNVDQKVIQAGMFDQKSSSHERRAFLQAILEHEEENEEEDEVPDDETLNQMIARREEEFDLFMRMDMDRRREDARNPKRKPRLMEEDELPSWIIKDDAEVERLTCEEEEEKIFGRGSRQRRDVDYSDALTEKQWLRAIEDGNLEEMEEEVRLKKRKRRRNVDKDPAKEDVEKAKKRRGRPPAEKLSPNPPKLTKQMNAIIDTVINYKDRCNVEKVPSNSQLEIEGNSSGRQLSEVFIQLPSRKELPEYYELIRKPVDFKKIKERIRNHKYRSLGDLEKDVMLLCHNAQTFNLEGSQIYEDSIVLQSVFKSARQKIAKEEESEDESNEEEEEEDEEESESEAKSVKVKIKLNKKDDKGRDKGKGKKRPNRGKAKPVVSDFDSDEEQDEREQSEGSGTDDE
Description: 130,000–200,000 cells were seeded in 24-well plates and incubated until settled down or overnight. Compounds were dissolved in DMSO and added to cells in indicated concentrations using a digital dispenser following an optional media change. Cells were incubated for 4 or 18 h as indicated. For SMARCA2/4 half-life determination, 150,000 or 200,000 cells were seeded in 24-well plates. The next day, 50 µg/ml cycloheximide (Sigma) was added and cells were incubated for 1–24 h. For SMARCA2/4 re-synthesis measurements, 200,000 cells were seeded in 24-well plates. The next day, 100 nM compound 6 was added for 4 h to degrade SMARCA2/4, and a sample was taken as baseline for normalisation. To allow re-synthesis, a VHL binder (compound 32, 25 or 50 µM) was then added for 3 or 24 h. Medium was removed, cells were washed with PBS and lysed with 80 µl Lysis Buffer (MSD Tris Lysis Buffer (#R60TX-2) + Halt Inhibitor Cocktail (100x) + Benzonase 0.5 µL/ml). Samples were frozen at −80 °C and thawed at room temperature before use. Samples were transferred to a V-bottom plate and insoluble debris was pelleted by centrifugation for 5 min at maximum speed. The supernatant was transferred to a fresh plate. Master Mix and Ladder were prepared according to manufacturer’s instructions for 12–230 kDa Wes Separation Module, 8 × 25 capillary cartridges, Protein Simple #SM-W004 with Anti-Rabbit Detection Module for Wes, Peggy Sue or Sally Sue, Protein Simple #DM-001. 4.8 µl lysate were mixed with 1.2 µl Master Mix to achieve a protein concentration of ~0.5 µg/µl. Antibodies were diluted in Antibody Diluent II (SMARCA2 Sigma #HPA029981 RRID:AB_10602406 1:25–100, SMARCA4 Cell Signalling #49360 clone D1Q7F RRID:AB_2728743 1:15–120 or Abcam #ab110641 clone EPNCIR111A RRID:AB_10861578 1:60, GAPDH Abcam #ab9485 RRID:AB_307275 1:250). Wes plates were prepared and run according to manufacturer’s instructions. Proteins were quantified with accompanying Compass Software. SMARCA2/4 protein levels were normalised to GAPDH. […] Where applicable, curves were fitted using a 4-parametric logistic model.

[2] = ternary complex with SMARCA4BD, mean ± SD

With Cc1ncsc1-c1ccc([C@H](CCCCN2CCC(c3ccc4c(c3)n(C3CCCC3)c3nc(=O)c5c(Br)cccc5n43)CC2)NC(=O)[C@@H]2C[C@@H](O)CN2C(=O)[C@@H](NC(=O)C2(F)CC2)C(C)(C)C)cc1 [compound 25] the “Solubility pH 4.5” value (Solubility testing; pH 4.5) was <1.000 ug/mL, the “Solubility pH 6.8” value (Solubility testing; pH 6.8) was <1.000 ug/mL and the “PPB fu 10% Calf” value (Plasma protein binding; 10% calf) was 0.731%. The “PPB fu 10% Calf” value (Plasma protein binding; 10% calf, fraction unbound) was 0.7%, the Kd [1, 2] was 14 ± 2 nM and the Kd ([1]; ternary, individual replicates) was 12.8 nM and 13.3 nM and 15.6 nM. It also gave an alpha [1] of 0.4.
For Cc1ncsc1-c1ccc([C@H](CCCCCN2CCC(c3ccc4c(c3)n(C3CCCC3)c3nc(=O)c5c(Br)cccc5n43)CC2)NC(=O)[C@@H]2C[C@@H](O)CN2C(=O)[C@@H](NC(=O)C2(F)CC2)C(C)(C)C)cc1 [compound 11], the “solubility” value (Solubility testing) was “moderate solubility”, the solubility at 24 h (Solubility testing; pH 4.5, aqueous buffer, pH 4.5, read-out: Solubility pH 4.5) was < 1 µg/mL and the solubility at 24 h (Solubility testing; pH 6.8, aqueous buffer, pH 6.8, read-out: Solubility pH 6.8) was < 1 µg/mL. For the same compound, the “PPB fu 10% Calf” value (Plasma protein binding; 10% calf) was 0.136%, the “PPB fu 10% Human” value (Plasma protein binding; 10% human) was < 0.043% and < 0.038% and the “PPB fu 10% Mouse” value (Plasma protein binding; 10% mouse) was < 0.038% and < 0.228% and 1.281%. The “PPB fu 10% Rat” value (Plasma protein binding; 10% rat) was < 0.044% and < 0.048%, the fraction unbound at 5 h, 3 µmol/L (Plasma protein binding; bovine, 10% calf plasma dilution in PBS, 10% calf, fraction unbound, read-out: PPB fu 10% Calf) was 0.0014 and the fraction unbound at 5 h, 3 µmol/L (Plasma protein binding; bovine, 10% plasma (plasma dilution in PBS), 10% calf, read-out: PPB fu 10% Calf) was < 0.00092. For the same compound, the fraction unbound at 5 h, 3 µmol/L (Plasma protein binding; human, 10% plasma (plasma dilution in PBS), 10% human, read-out: PPB fu 10% Human) was < 0.00049, the fraction unbound at 5 h, 3 µmol/L (Plasma protein binding; human, plasma, human, fraction unbound, read-out: PPB fu Human) was < 0.0004 and the fraction unbound at 5 h, 3 µmol/L (Plasma protein binding; mouse, plasma, mouse, fraction unbound, read-out: PPB fu Mouse) was < 0.0004. For the same compound, the fraction unbound at 5 h, 3 µmol/L (Plasma protein binding; rat, 10% plasma (plasma dilution in PBS), 10% rat, read-out: PPB fu 10% Rat) was < 0.00047, the fraction unbound at 5 h, 3 µmol/L (Plasma protein binding; rat, plasma, rat, fraction unbound, read-out: PPB fu Rat) was < 0.0004 and the Dmax (SMARCA2; NCI-H1568 (4 h), mean ± SD) was 90 ± 0.3%. The DC50 (SMARCA2; NCI-H1568 (4 h), mean ± SD, read-out: SMARCA2 DC50) was 8 ± 4 nM, the DC50 (SMARCA2; NCI-H1568, 4h, individual replicates, read-out: NCI-H1568 (4h) SMARCA2 DC50) was 5.2 nM and 13 nM and 6.7 nM and the Kd [1, 2] was 18 ± 2 nM. The Kd ([1]; ternary, individual replicates) was 16.7 nM and 16.3 nM and 19.3 nM and the alpha [1] was 0.6.
